Activity calls are given as the source filed them. The rule behind the calls is not given here.

In ChEMBL document CHEMBL3400048, “N-acylated sulfonamide congeners of fosmidomycin lack any inhibitory activity against DXR” (Bioorg Med Chem Lett, 2015) one finds Activity data, which are given here for four molecules.

The test system of series [1] is Trypanosoma cruzi. The series is described as follows: Antimicrobial activity against Trypanosoma cruzi at 64 uM. Format: functional, organism-based.
Series [2] concerns Staphylococcus aureus. As to the kind of experiment: Antimicrobial activity against Staphylococcus aureus at 64 uM. Format: functional, organism-based.
The target of series [3] is T1, 1-deoxy-D-xylulose 5-phosphate reductoisomerase (Escherichia coli K-12) (UniProt P45568).
T1 sequence (whole entry): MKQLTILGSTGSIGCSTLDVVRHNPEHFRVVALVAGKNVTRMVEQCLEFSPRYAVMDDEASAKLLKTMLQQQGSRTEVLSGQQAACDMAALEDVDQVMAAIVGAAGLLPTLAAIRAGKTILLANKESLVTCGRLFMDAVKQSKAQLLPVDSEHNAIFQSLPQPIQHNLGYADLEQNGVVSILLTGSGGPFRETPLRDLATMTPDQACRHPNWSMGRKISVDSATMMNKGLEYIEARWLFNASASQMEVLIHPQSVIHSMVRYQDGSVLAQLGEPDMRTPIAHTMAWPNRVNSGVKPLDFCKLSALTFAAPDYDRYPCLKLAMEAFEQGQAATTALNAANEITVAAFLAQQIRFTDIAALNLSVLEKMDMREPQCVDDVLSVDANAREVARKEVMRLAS
The series is described as follows: Inhibition of Escherichia coli DXR activity using DXP as substrate assessed as residual activity preincubated at 100 uM for 5 mins before substrate addition measured every 3 seconds for 180 seconds by spectrophotometric assay.

The subject of series [4] is Plasmodium falciparum. The series is described as follows: Antimicrobial activity against Plasmodium falciparum K1 at 64 uM. The class given is functional, organism-based.
For series [5], the system named is Pseudomonas aeruginosa. The series is described as follows: Antimicrobial activity against Pseudomonas aeruginosa at 64 uM. The class given is functional, organism-based.
Series [6] relates to Aspergillus fumigatus. The series is described as follows: Antimicrobial activity against Aspergillus fumigatus at 64 uM. Format: functional, organism-based.
The test system of series [7] is Trichophyton rubrum. As to the kind of experiment: Antimicrobial activity against Trichophyton rubrum at 64 uM. The class given is functional, organism-based.
Series [8] has as its system MRC5. The series is described as follows: Cytotoxicity against human MRC5 cells at 64 uM. The settings on record: mrc5, 64 µM. Format: cell-based.
Series [9] relates to Candida albicans. As to the kind of experiment: Antimicrobial activity against Candida albicans at 64 uM. The class given is functional, organism-based.
The subject of series [10] is Escherichia coli. The series is described as follows: Antimicrobial activity against Escherichia coli at 64 uM. The class given is functional, organism-based.
Series [11] deals with Leishmania infantum. The series is described as follows: Antimicrobial activity against Leishmania infantum at 64 uM. Format: functional, organism-based.
The test system of series [12] is Trypanosoma brucei. As to the kind of experiment: Antimicrobial activity against Trypanosoma brucei at 64 uM. The class given is functional, organism-based.

With `CC(=O)N(O)CCCS(=O)(=O)NC(=O)CCc1ccccc1`, the outcome in series [1], in series [2], in [4], in series [5], in series [6] and in [7] was inactive. The result in [9], in [10], in series [11] and in [12] was inactive. The Activity in series [3] was 100%; in [8], “Non-toxic”.
Consider `CC(=O)N(O)CCCS(=O)(=O)NC(=O)c1ccccc1`, for which the outcome in [1], in series [2], in series [4], in series [5], in [6] and in [7] was inactive. In addition, the result in series [9], in [10], in [11] and in series [12] was inactive. The Activity in [3] was 100%; in series [8], “Non-toxic”.
As to `CC(=O)NS(=O)(=O)CCCN(O)C(C)=O`, the result in series [1], in series [2], in series [4], in series [5], in series [6] and in [7] was inactive. The outcome in [9], in series [10], in series [11] and in [12] was inactive. In addition, the values for the Activity in series [3] and in series [8] were 100% and “Non-toxic”, respectively.
Consider `CC(=O)N(O)CCCS(=O)(=O)NC(=O)Cc1ccccc1`, for which the outcome in series [1], in series [2], in series [4], in series [5], in series [6] and in series [7] was inactive. The result in [9], in series [10], in [11] and in series [12] was inactive. Further, the Activity in series [3] was 100%; in series [8], “Non-toxic”.
